Data from ChEMBL document CHEMBL3751744, “Antibacterial activities of polythionates enhanced by carbonates” (2015).
Activity calls are given as the source filed them. The rule behind the calls is not given here.

How the values were obtained:
Staphylococcus aureus [1] = tested on: Staphylococcus aureus
Staphylococcus aureus [2] = tested on: Staphylococcus aureus; remark: listed apart in the source
Description: Bactericidal activity against Staphylococcus aureus assessed number of surviving colonies after 24 hrs

Pseudomonas aeruginosa [3] = tested on: Pseudomonas aeruginosa
Description: (§1) Antibacterial activity against Pseudomonas aeruginosa assessed as growth inhibition after 24 hrs by turbidimetric method

Pseudomonas aeruginosa [4] = tested on: Pseudomonas aeruginosa; remark: listed apart in the source
Staphylococcus aureus [5] = test: Antibacterial activity against Staphylococcus aureus at <125 ug/ml by cup diffusion method; type: functional, organism-based
Pseudomonas aeruginosa [6] = test: Antibacterial activity against Pseudomonas aeruginosa at 125 ug/ml by cup diffusion method; type: functional, organism-based
Staphylococcus aureus [7] = test: Antibacterial activity against Staphylococcus aureus assessed as growth inhibition after 24 hrs by turbidimetric method; type: functional
Pseudomonas aeruginosa [8] = test: microbe, parasite or virus in culture; type: functional; details: 24 h
Description: as §1

Pseudomonas aeruginosa [9] = test: Bactericidal activity against Pseudomonas aeruginosa assessed number of surviving colonies after 24 hrs; type: functional; details: read-out: MBC99.9
Pseudomonas aeruginosa [10] = test: Antibacterial activity against Pseudomonas aeruginosa at 7.8 ug/ml by cup diffusion method; type: functional, organism-based
Staphylococcus aureus [11] = test: Antibacterial activity against Staphylococcus aureus at 250 ug/ml by cup diffusion method; type: functional, organism-based
Pseudomonas aeruginosa [12] = test: Antibacterial activity against Pseudomonas aeruginosa using 24 hrs aged compound solutions by cup diffusion method; type: functional, organism-based
Staphylococcus aureus [13] = test: Antibacterial activity against Staphylococcus aureus assessed as growth inhibition after 24 hrs in presence of urea by turbidimetric method; type: functional
Pseudomonas aeruginosa [14] = test: Antibacterial activity against Pseudomonas aeruginosa assessed as growth inhibition after 24 hrs in presence of urea by turbidimetric method; type: functional
Pseudomonas aeruginosa [15] = test: Bactericidal activity against Pseudomonas aeruginosa assessed number of surviving colonies after 24 hrs in presence of urea; type: functional; details: read-out: MBC99.9
Staphylococcus aureus [16] = test: Potency index, ratio of MIC for Staphylococcus aureus to MIC for Staphylococcus aureus assessed as growth inhibition in presence of urea; type: functional
Pseudomonas aeruginosa [17] = test: Potency index, ratio of MIC for Pseudomonas aeruginosa to MIC for Pseudomonas aeruginosa assessed as growth inhibition in presence of urea; type: functional
Staphylococcus aureus [18] = test: Bactericidal activity against Staphylococcus aureus […] assessed number of surviving colonies after 24 hrs in presence of carbonate; type: functional, organism-based
Staphylococcus aureus [19] = test: Antibacterial activity against Staphylococcus aureus assessed as growth inhibition after 24 hrs in presence of carbonate by turbidimetric method; type: functional
Pseudomonas aeruginosa [20] = test: Antibacterial activity against Pseudomonas aeruginosa assessed as growth inhibition after 24 hrs in presence of carbonate by turbidimetric method; type: functional
Staphylococcus aureus [21] = test: Bactericidal activity against Staphylococcus aureus […] assessed number of surviving colonies after 24 hrs in presence of urea; type: functional, organism-based
Pseudomonas aeruginosa [22] = test: Bactericidal activity against Pseudomonas aeruginosa assessed number of surviving colonies after 24 hrs in presence of carbonate; type: functional; details: read-out: MBC99.9

NC(N)=O
MIC (Staphylococcus aureus [1]): inactive
MBC99.9 (Staphylococcus aureus [2]): inactive
MIC (Pseudomonas aeruginosa [3]): inactive
MBC99.9 (Pseudomonas aeruginosa [4]): inactive

O=S(=O)(O)O
MIC (Staphylococcus aureus [1]): inactive
MBC99.9 (Staphylococcus aureus [2]): inactive
MIC (Pseudomonas aeruginosa [3]): inactive
MBC99.9 (Pseudomonas aeruginosa [4]): inactive

O=S(O)(O)=S
MIC (Staphylococcus aureus [1]): inactive
MBC99.9 (Staphylococcus aureus [2]): inactive
MIC (Pseudomonas aeruginosa [3]): inactive
MBC99.9 (Pseudomonas aeruginosa [4]): inactive

O=S(=O)(O)SS(=O)(=O)O
MIC (Staphylococcus aureus [1]): inactive
MBC99.9 (Staphylococcus aureus [2]): inactive
MIC (Pseudomonas aeruginosa [3]): inactive
MBC99.9 (Pseudomonas aeruginosa [4]): inactive

O=S(=O)(O)SSS(=O)(=O)O
MIC (Staphylococcus aureus [1]): inactive
MBC99.9 (Staphylococcus aureus [2]): inactive
MIC (Pseudomonas aeruginosa [3]): inactive
MBC99.9 (Pseudomonas aeruginosa [4]): inactive

O=S(=O)([O-])SSSSS(=O)(=O)[O-].[K+].[K+]
Activity (Staphylococcus aureus [5]): inactive
Activity (Pseudomonas aeruginosa [6]): Active
MIC (Staphylococcus aureus [7]): 7.81 µg/mL
MIC (Pseudomonas aeruginosa [8]): 0.98 µg/mL
MBC (Pseudomonas aeruginosa [9]): 1000 µg/mL
Activity (Pseudomonas aeruginosa [10]): Active
Activity (Staphylococcus aureus [11]): Active
Activity (Pseudomonas aeruginosa [12]): Active
MIC (Staphylococcus aureus [13]): 62.5 µg/mL
MIC (Pseudomonas aeruginosa [14]): 1.95 µg/mL
MBC (Pseudomonas aeruginosa [15]): 500 µg/mL
Ratio (Staphylococcus aureus [16]): 4
Ratio (Pseudomonas aeruginosa [17]): 4
MBC99.9 (Staphylococcus aureus [18]): inactive
MIC (Staphylococcus aureus [19]): 15.6 µg/mL
MIC (Pseudomonas aeruginosa [20]): 1.95 µg/mL
MBC99.9 (Staphylococcus aureus [21]): inactive
MBC (Pseudomonas aeruginosa [22]): 500 µg/mL
MBC99.9 (Staphylococcus aureus [2]): inactive

O=S(=O)([O-])SSSS(=O)(=O)[O-].[K+].[K+]
MIC (Staphylococcus aureus [7]): 62.5 µg/mL
MIC (Pseudomonas aeruginosa [8]): 1.95 µg/mL
MBC (Pseudomonas aeruginosa [9]): 500 µg/mL
Activity (Pseudomonas aeruginosa [12]): Active
MIC (Staphylococcus aureus [13]): inactive
MIC (Pseudomonas aeruginosa [14]): 15.6 µg/mL
MBC (Pseudomonas aeruginosa [15]): 1000 µg/mL
MBC99.9 (Staphylococcus aureus [18]): inactive
MIC (Staphylococcus aureus [19]): 125 µg/mL
MIC (Pseudomonas aeruginosa [20]): 3.91 µg/mL
MBC99.9 (Staphylococcus aureus [21]): inactive
MBC (Pseudomonas aeruginosa [22]): 1000 µg/mL
MBC99.9 (Staphylococcus aureus [2]): inactive
